# Experiments:
# [1] = Aqueous solubility and ionization of Compound (I); type: physicochemical
# Excerpt: [drawing 2] and is referred to herein as “Compound (I)”. Compound (I), a process to prepare Compound (I), and methods of treatment employing Compound (I) are disclosed in U.S. Patent Application Publication No. 2016/0096839, which is assigned to the present assignee and incorporated herein by reference in its entirety. […] These characteristics of Compound (I) render it difficult to formulate for oral administration to achieve therapeutically effective blood levels.
# [2] = Microcentrifuge dissolution test in 0.5% SIF in PBS pH 6.5; type: physicochemical; settings: control; 1000 μg/mL if all of drug had dissolved
# Procedure: Microcentrifuge dissolution tests were performed in a 37° C. temperature-controlled box. Weighed 1 mg of sample into each of two 2.0 mL Sorenson microcentrifuge tubes. Added 1.8 mL of 0.5% SIF in phosphate buffered saline (PBS) (pH 6.5) to each tube and started the timer. Vortexed the samples for 1 minute on Setting 8 on a Fisher Vortex Genie 2. Centrifuged the samples for 1 minute at 13,000 rpm using an IEC Micromax microcentrifuge. When the timer reads 4 minutes, extracted 50 μL of supernatant from each microcentrifuge tube into a HPLC vial containing 250 μL of diluent (HPLC-grade 95:5 THF:Water). Vortexed the mixtures for 25 seconds. Repeated the steps for following time points: 10, 20, 40, and 90 minutes, and again at 20 hours.
# Analyzed the samples by HPLC using the method below:
# As a control, crystalline Compound (I) alone was evaluated using the same procedure. A sufficient amount of material was added so that the concentration of Compound (I) would have been 1000 μg/mL, if all of drug had dissolved.
# The concentrations of Compound (I) obtained in these samples were used to determine the maximum dissolved concentration of Compound (I) in solution during the first ninety minutes of the test (MDC90), the area under the concentration-versus-time curve during the initial ninety minutes (AUC90).
SMILES,ionization ([1]; physiologically relevant region),aqueous solubility ([1]; room temperature),AUC90 [2] [µg/mL],Cmax90 [2] [ng/mL]
"C[C@@H]1CCC[C@H](n2cnc(-c3cc(Cl)ccc3-n3cc(Cl)nn3)cc2=O)c2cc(ccn2)-c2c(cnn2C(F)F)NC1=O [Compound (I), (9R,13S)-13-{4-[5-chloro-2-(4-chloro-1H-1,2,3-triazol-1-yl)phenyl]-6-oxo-1,6-dihydropyrimidin-1-yl}-3-(difluoromethyl)-9-methyl-3,4,7,15-tetraazatricyclo[12.3.1.0^2,6]octadeca-1(18),2(6),4,14,16-pentaen-8-one]",non-ionizable,low aqueous solubility,,
"C[C@@H]1CCC[C@H](n2cnc(-c3cc(Cl)ccc3-n3cc(Cl)nn3)cc2=O)c2cc(ccn2)-c2c(cnn2C(F)F)NC1=O [Crystalline API, (9R,13S)-13-{4-[5-chloro-2-(4-chloro-1H-1,2,3-triazol-1-yl)phenyl]-6-oxo-1,6-dihydropyrimidin-1-yl}-3-(difluoromethyl)-9-methyl-3,4,7,15-tetraazatricyclo[12.3.1.0^2,6]octadeca-1(18),2(6),4,14,16-pentaen-8-one]",,,1810,26000

# Source: patent US12509461B2, “Enhanced performance of amorphous solid and solubilized formulations for achieving therapeutic plasma concentrations” (BRISTOL-MYERS SQUIBB COMPANY, priority 2019, dated 2025)
